Results from PubChem BioAssay AID248 (DTP/NCI, 2004).
Toxic doses and inconclusive results are not listed. Cut-off read from the data, not from the text of the source: active = T/C of 150% or more; inactive = T/C below 125%.

System: L1210 leukemia ip in BDF1 mice, survival T/C
Test: NCI In Vivo Anticancer Drug Screen. Data for tumor model L1210 Leukemia (intraperitoneal) in B6D2F1 (BDF1) mice
Conditions: endpoint: mean survival time, higher = longer survival
Procedure, shortened: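 Tumor cells were implanted, animals were treated, and survival was followed. The result divides the treated measurement by the vehicle-control measurement.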

Measured: T/C

Clc1nnc(Cl)c(Cl)c1Cl
inactive: dose: 0.31 mg/kg/injection, schedule: Q01DX009 (ip), vehicle: saline 101 % of control | dose: 0.5 mg/kg/injection, schedule: Q01DX Z (ip), vehicle: carboxymethylcellulose (CMC) 98 % of control | dose: 0.62 mg/kg/injection, schedule: Q01DX009 (ip), vehicle: saline 98 % of control | dose: 0.62 mg/kg/injection, schedule: Q04DX003 (ip), vehicle: acetone 96 % of control | dose: 0.75 mg/kg/injection, schedule: Q01DX009 (ip), vehicle: saline 104 % of control | dose: 1.0 mg/kg/injection, schedule: Q01DX Z (ip), vehicle: carboxymethylcellulose (CMC) 96 % of control | dose: 1.25 mg/kg/injection, schedule: Q01DX009 (ip), vehicle: saline 96 % of control | dose: 1.25 mg/kg/injection, schedule: Q04DX003 (ip), vehicle: acetone 89 % of control | dose: 1.5 mg/kg/injection, schedule: Q01DX009 (ip), vehicle: saline 97 % of control | dose: 1.8 mg/kg/injection, schedule: Q01DX009 (ip), vehicle: saline with Tween-80 102 % of control | dose: 2.0 mg/kg/injection, schedule: Q01DX Z (ip), vehicle: carboxymethylcellulose (CMC) 93 % of control | dose: 2.5 mg/kg/injection, schedule: Q01DX001 (ip), vehicle: saline 97 % of control | dose: 2.8 mg/kg/injection, schedule: Q01DX009 (ip), vehicle: saline with Tween-80 108 % of control | dose: 3.0 mg/kg/injection, schedule: Q01DX009 (ip), vehicle: saline 97 % of control | dose: 4.0 mg/kg/injection, schedule: Q01DX015 (ip), vehicle: carboxymethylcellulose (CMC) 96 % of control | dose: 4.0 mg/kg/injection, schedule: Q01DX Z (ip), vehicle: carboxymethylcellulose (CMC) 93 % of control | dose: 4.2 mg/kg/injection, schedule: Q01DX009 (ip), vehicle: saline with Tween-80 94 % of control | dose: 8.0 mg/kg/injection, schedule: Q01DX015 (ip), vehicle: carboxymethylcellulose (CMC) 93 % of control

CCC1(CC)NC(=O)NC1=O
inactive: dose: 50.0 mg/kg/injection, schedule: Q04DX003 (ip), vehicle: saline 102 % of control | dose: 100.0 mg/kg/injection, schedule: Q01DX009 (ip), vehicle: saline 99 % of control | dose: 100.0 mg/kg/injection, schedule: Q04DX003 (ip), vehicle: saline 105 % of control | dose: 200.0 mg/kg/injection, schedule: Q01DX009 (ip), vehicle: saline 98 % of control | dose: 200.0 mg/kg/injection, schedule: Q04DX003 (ip), vehicle: saline 102 % of control | dose: 400.0 mg/kg/injection, schedule: Q01DX009 (ip), vehicle: saline 102 % of control | dose: 400.0 mg/kg/injection, schedule: Q04DX003 (ip), vehicle: saline 103 % of control

O=C(Nc1ccc(NC(=O)c2ccc(C3=NCCN3)cc2)cc1)Nc1ccc(C2=NCCN2)cc1
inactive: dose: 6.25 mg/kg/injection, schedule: Q01DX Z (ip), vehicle: carboxymethylcellulose (CMC) 117 % of control | dose: 62.0 mg/kg/injection, schedule: Q01DX Z (oral), vehicle: carboxymethylcellulose (CMC) 120 % of control | dose: 100.0 mg/kg/injection, schedule: Q01DX Z (ip), vehicle: carboxymethylcellulose (CMC) 106 % of control | dose: 125.0 mg/kg/injection, schedule: Q01DX Z (oral), vehicle: carboxymethylcellulose (CMC) 97 % of control | dose: 150.0 mg/kg/injection, schedule: Q01DX Z (ip), vehicle: carboxymethylcellulose (CMC) 94 % of control | dose: 175.0 mg/kg/injection, schedule: Q01DX Z (ip), vehicle: carboxymethylcellulose (CMC) 115 % of control | dose: 250.0 mg/kg/injection, schedule: Q01DX Z (ip), vehicle: carboxymethylcellulose (CMC) 109 % of control | dose: 250.0 mg/kg/injection, schedule: Q01DX Z (oral), vehicle: carboxymethylcellulose (CMC) 103 % of control | dose: 300.0 mg/kg/injection, schedule: Q01DX Z (oral), vehicle: carboxymethylcellulose (CMC) 103 % of control
active: dose: 25.0 mg/kg/injection, schedule: Q01DX Z (ip), vehicle: carboxymethylcellulose (CMC) 206 % of control | dose: 50.0 mg/kg/injection, schedule: Q01DX Z (ip), vehicle: carboxymethylcellulose (CMC) 268 % of control | dose: 62.0 mg/kg/injection, schedule: Q01DX Z (ip), vehicle: carboxymethylcellulose (CMC) 282 % of control | dose: 125.0 mg/kg/injection, schedule: Q01DX Z (ip), vehicle: carboxymethylcellulose (CMC) 214 % of control

CCNC(=S)NNC(=S)NNc1ccccc1
inactive: dose: 12.5 mg/kg/injection, schedule: Q04DX002 (ip), vehicle: other 102 % of control | dose: 25.0 mg/kg/injection, schedule: Q04DX002 (ip), vehicle: other 100 % of control | dose: 50.0 mg/kg/injection, schedule: Q04DX002 (ip), vehicle: other 102 % of control

Cc1ccc(S(=O)(=O)N/N=C(\CSc2ccc([N+](=O)[O-])cc2)c2ccccc2)cc1
inactive: dose: 100.0 mg/kg/injection, schedule: Q04DX003 (ip), vehicle: saline with Tween-80 87 % of control | dose: 200.0 mg/kg/injection, schedule: Q04DX003 (ip), vehicle: saline with Tween-80 92 % of control | dose: 400.0 mg/kg/injection, schedule: Q04DX003 (ip), vehicle: saline with Tween-80 88 % of control
